Patent EP4711369A1, “1H-[1,2,3]TRIAZOLO[4,5-H]QUINAZOLINE COMPOUNDS AS PROTEIN KINASE INHIBITORS” (Chengdu Cynogen Bio-Pharmaceutical Technology Co., Ltd., priority 2023, dated 2024)
Read-outs that look alike come from different tables or passages of the source.

Legend:
CDK2/cyclin E = CDK2/cyclin E (Homo sapiens, UniProt P24941); test: Assay of kinase activity (ADP-Glo); type: biochemical; details: kinase inhibitory activity, read-out: CDK2/E1 IC50
Protocol: (§1) CDK/cyclin catalyzes the phosphorylation of a substrate, which concomitantly consumes ATP and produces ADP. The inhibition rate (%) in the presence of a small molecule inhibitor was assessed by measuring the amount of ADP generated in the reaction. The assay compounds were thoroughly mixed by vortexing and then diluted in DMSO to 100× the assay concentration. […] A 2× kinase solution was prepared using a 1× kinase reaction buffer (50 mM Hepes, 10 mM MgCl2, 0.01% Brij35, 2 mM DTT). 2 µL of the kinase solution was transferred to the 384-well assay plate, and the plate was centrifuged at 1000 rpm for 60 seconds in a microplate centrifuge. The plate was incubated at 25 °C in a biochemical incubator for 10 minutes. A 2x mixture of substrate and ATP was prepared in the kinase reaction buffer. Then, 2 µL of the mixture of substrate and ATP was added to the 384-well assay plate. The plate was centrifuged at 1000 rpm for 60 seconds in a microplate centrifuge, and incubated at 25 °C in a biochemical incubator for 60 minutes. 4 µL of ADP-Glo Reagent (Cat. No. V9103, manufacturer: Promega) incubated at 25 °C in a biochemical incubator was added to each well of the 384-well assay plate. The plate was centrifuged at 1000 rpm for 60 seconds in a microplate centrifuge, and incubated at 25 °C in a biochemical incubator for 40 minutes. 8 µL of Detection Reagent incubated at 25 °C in a biochemical incubator was added to each well of the 384-well assay plate. The plate was centrifuged at 1000 rpm for 60 seconds in a microplate centrifuge, and incubated at 25 °C in a biochemical incubator for 40 minutes. Finally, luminescence signals were read using a multifunctional microplate reader (model: PHERAstar FSX, manufacturer: BMG). IC50 values were calculated by nonlinear fitting of the concentration-response curves using GraphPad Prism software.

CDK4/cyclin D1 = CDK4/cyclin D1 (Homo sapiens, UniProt P11802); test: Assay of kinase activity (ADP-Glo); type: biochemical; details: kinase inhibitory activity
CDK4/cyclin D1, sequence (P11802 whole entry, species assumed): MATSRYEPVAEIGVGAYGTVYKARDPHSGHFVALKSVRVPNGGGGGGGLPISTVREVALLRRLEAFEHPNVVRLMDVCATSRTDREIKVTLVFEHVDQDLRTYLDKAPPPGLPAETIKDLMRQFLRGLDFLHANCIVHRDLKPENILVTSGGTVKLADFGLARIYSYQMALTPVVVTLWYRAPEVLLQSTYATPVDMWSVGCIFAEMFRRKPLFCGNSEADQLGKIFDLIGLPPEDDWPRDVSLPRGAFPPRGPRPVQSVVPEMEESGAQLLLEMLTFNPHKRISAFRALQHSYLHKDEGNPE
CDK4/cyclin D1, sequence (P24385 whole entry partner, species assumed): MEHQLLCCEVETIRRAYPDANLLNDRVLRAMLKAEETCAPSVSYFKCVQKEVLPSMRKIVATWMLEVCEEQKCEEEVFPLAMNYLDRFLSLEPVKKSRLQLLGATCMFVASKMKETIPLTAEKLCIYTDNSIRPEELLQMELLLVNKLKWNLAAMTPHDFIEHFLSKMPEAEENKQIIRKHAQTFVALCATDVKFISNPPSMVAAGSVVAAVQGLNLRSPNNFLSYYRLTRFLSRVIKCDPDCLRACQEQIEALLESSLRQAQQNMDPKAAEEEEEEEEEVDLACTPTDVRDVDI
Protocol: as §1

CDK6/cyclin D3 = CDK6/cyclin D3 (Homo sapiens, UniProt Q00534); test: Assay of kinase activity (ADP-Glo); type: biochemical; details: kinase inhibitory activity
CDK6/cyclin D3, sequence (Q00534 whole entry, species assumed): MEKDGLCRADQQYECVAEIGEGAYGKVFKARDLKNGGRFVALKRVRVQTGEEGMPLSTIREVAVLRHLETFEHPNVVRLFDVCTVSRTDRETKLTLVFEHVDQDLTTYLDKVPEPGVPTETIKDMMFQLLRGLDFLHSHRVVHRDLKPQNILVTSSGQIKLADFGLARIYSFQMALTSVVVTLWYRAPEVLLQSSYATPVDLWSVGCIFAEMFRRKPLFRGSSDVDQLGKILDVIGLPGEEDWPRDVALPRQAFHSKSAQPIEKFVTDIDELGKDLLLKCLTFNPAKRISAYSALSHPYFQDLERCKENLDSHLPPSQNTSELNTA
CDK6/cyclin D3, sequence (P30281 whole entry partner, species assumed): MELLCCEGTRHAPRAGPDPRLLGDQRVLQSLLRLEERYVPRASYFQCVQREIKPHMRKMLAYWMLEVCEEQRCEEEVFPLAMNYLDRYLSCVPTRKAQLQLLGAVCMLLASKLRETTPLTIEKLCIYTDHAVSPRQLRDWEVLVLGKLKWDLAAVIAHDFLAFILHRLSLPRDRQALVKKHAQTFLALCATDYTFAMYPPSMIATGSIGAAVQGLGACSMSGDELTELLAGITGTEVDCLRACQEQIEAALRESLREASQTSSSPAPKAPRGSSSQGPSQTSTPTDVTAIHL
Protocol: (§2) CDK/cyclin catalyzes the phosphorylation of a substrate, which concomitantly consumes ATP and produces ADP. The inhibition rate (%) in the presence of a small molecule inhibitor was assessed by measuring the amount of ADP generated in the reaction. The assay compounds were thoroughly mixed by vortexing and then diluted in DMSO to 100× the assay concentration. 40 nL of a compound was transferred to a 384-well assay plate using a nanoliter pipetting system (ECHO® 655 SYSTEM). A 2× kinase solution was prepared using a 1× kinase reaction buffer (50 mM Hepes, 10 mM MgCl2, 0.01% Brij35, 2 mM DTT). 2 µL of the kinase solution was transferred to the 384-well assay plate, and the plate was centrifuged at 1000 rpm for 60 seconds in a microplate centrifuge. The plate was incubated at 25 °C in a biochemical incubator for 10 minutes. A 2x mixture of substrate and ATP was prepared in the kinase reaction buffer. Then, 2 µL of the mixture of substrate and ATP was added to the 384-well assay plate. The plate was centrifuged at 1000 rpm for 60 seconds in a microplate centrifuge, and incubated at 25 °C in a biochemical incubator for 60 minutes. 4 µL of ADP-Glo Reagent (Cat. No. V9103, manufacturer: Promega) incubated at 25 °C in a biochemical incubator was added to each well of the 384-well assay plate. The plate was centrifuged at 1000 rpm for 60 seconds in a microplate centrifuge, and incubated at 25 °C in a biochemical incubator for 40 minutes. 8 µL of Detection Reagent incubated at 25 °C in a biochemical incubator was added to each well of the 384-well assay plate. The plate was centrifuged at 1000 rpm for 60 seconds in a microplate centrifuge, and incubated at 25 °C in a biochemical incubator for 40 minutes. Finally, luminescence signals were read using a multifunctional microplate reader (model: PHERAstar FSX, manufacturer: BMG). IC50 values were calculated by nonlinear fitting of the concentration-response curves using GraphPad Prism software.

[1] = system: human acute myeloid leukemia MV-4-11 cells; test: Assay of cell proliferation (CellTiter-Glo); type: cell-based; details: MV4-11, 144 h, 6 days, read-out: MV-4-11 IC50 of cell proliferation inhibitory activity
Protocol: (§3) Human ovarian cancer OVCAR3 cells were inoculated at 2000 cells/well in a 96-well plate and cultured in RPMI 1640 medium containing 20% FBS at 37 °C and 5% CO2 overnight in an incubator. The next day, the compounds were subjected to a three-fold gradient dilution in DMSO from a peak concentration of 2 mM to give nine concentrations. Then, the compounds were diluted 3:200 in growth medium, and finally diluted 1:3 in the cell culture supernatant to give a culture supernatant containing 0.5% DMSO, with the compounds treatment concentrations ranging from 10 µM to 0.1 nM. The cells and the compounds were incubated at 37 °C and 5% CO2 for 6 days. Then, cell proliferation assay was performed using the CellTiter-Glo (manufacturer: Promega, Cat. No. G9242), and luminescence signals were read using a multifunctional microplate reader (model: Synergy H1, manufacturer: BiotTek). IC50 values were calculated by fitting of the concentration-response curves with a four-parameter analysis method using GraphPad Prism software.
(§4) The cell proliferation assays of human colon cancer HCT-116 cells, human breast cancer MCF-7 cells, human breast cancer HCC1806 cells, human acute myeloid leukemia MV-4-11 cells, and human gastric cancer MKN1 cells were performed according to the same method, with different inoculation densities set according to different cell growth characteristics.

[2] = system: human breast cancer HCC1806 cells; test: Assay of cell proliferation (CellTiter-Glo); type: cell-based; details: 6 days, read-out: HCC1806 IC50 of cell proliferation inhibitory activity
Protocol: as §3, §4

[3] = system: human gastric cancer MKN1 cells; test: Assay of cell proliferation (CellTiter-Glo); type: cell-based; details: read-out: MKN1 IC50 of cell proliferation inhibitory activity
Protocol: as §3, §4

[4] = system: Human ovarian cancer OVCAR3 cells; test: Assay of cell proliferation (CellTiter-Glo); type: cell-based; details: 6 days, read-out: OVCAR3 IC50 of cell proliferation inhibitory activity
Protocol: as §3

CDK9/cyclin T1 = CDK9/cyclin T1 (Homo sapiens, UniProt P50750); test: Assay of kinase activity (ADP-Glo); type: biochemical; details: kinase inhibitory activity
CDK9/cyclin T1, sequence (P50750 whole entry, species assumed): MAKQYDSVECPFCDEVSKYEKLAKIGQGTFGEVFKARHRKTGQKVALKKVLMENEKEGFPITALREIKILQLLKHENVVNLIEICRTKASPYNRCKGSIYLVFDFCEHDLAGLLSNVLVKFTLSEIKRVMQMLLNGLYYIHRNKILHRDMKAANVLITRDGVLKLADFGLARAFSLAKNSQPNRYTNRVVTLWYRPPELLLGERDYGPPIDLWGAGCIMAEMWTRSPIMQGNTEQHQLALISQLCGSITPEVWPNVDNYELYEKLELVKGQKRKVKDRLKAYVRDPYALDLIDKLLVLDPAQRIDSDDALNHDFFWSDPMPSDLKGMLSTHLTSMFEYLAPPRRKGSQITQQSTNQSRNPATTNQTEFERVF
CDK9/cyclin T1, sequence (O60563 whole entry partner, species assumed): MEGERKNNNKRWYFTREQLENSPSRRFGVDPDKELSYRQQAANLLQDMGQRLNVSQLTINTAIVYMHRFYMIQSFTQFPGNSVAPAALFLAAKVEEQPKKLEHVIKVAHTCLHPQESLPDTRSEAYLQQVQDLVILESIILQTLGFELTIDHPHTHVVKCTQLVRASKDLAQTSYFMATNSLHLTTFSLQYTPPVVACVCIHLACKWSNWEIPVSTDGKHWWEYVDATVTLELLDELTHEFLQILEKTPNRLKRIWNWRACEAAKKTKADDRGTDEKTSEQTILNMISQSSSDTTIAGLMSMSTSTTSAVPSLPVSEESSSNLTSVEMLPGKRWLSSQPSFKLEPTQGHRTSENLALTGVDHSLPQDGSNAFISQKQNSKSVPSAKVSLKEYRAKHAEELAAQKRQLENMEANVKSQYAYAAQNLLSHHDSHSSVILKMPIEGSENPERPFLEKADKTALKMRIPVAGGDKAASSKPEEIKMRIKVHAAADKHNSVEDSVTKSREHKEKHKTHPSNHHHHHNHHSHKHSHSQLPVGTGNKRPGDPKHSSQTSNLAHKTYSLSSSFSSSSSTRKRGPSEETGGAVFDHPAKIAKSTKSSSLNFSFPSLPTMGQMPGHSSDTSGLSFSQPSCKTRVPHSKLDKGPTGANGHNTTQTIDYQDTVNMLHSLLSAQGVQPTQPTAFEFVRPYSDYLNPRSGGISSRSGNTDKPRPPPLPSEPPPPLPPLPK
Protocol: as §2

[5] = Homo sapiens, MKN-1, 144 h, MNK1, 6 days

Compound | IC50 (CDK2/cyclin E) [nM] | IC50 (CDK4/cyclin D1) [nM] | IC50 (CDK6/cyclin D3) [nM] | IC50 [1] [nM] | IC50 ([2]; Homo sapiens, 144 h) [nM] | IC50 [3, 5] [nM] | IC50 ([4]; Homo sapiens, OVCAR-3, 144 h) [nM] | IC50 (CDK9/cyclin T1) [nM] | IC50 [2] [nM] | IC50 ([3]; column head MKN1, 6 days) [nM] | IC50 [4] [nM]
CC[C@H](Nc1nc(NCc2cnc(C)cc2C)c2ncn(C(C)C)c2n1)[C@@H](C)O [CYC-065 (Fadraciclib), reference compound] | 3 | 228 | > 1000 | 171 | 623 | 209 | 349 |  |  |  | 
CC(C)n1nnc2ccc3cnc(Nc4ccc(C(=O)N5CC[C@@H](C)[C@@H](N)C5)cc4)nc3c21 [Example I-12, ((3R,4R)-3-Amino-4-methylpiperidin-1-yl)(4-((1-isopropyl-1H-[1,2,3]triazolo[4,5-H]quinazolin-8-yl)amino)phenyl)metha none] | 1 | 3 | 18 | 6 | 84 | 30 | 26 |  |  |  | 
CC(C)n1nnc2ccc3cnc(Nc4ccc(C(=O)N5CC[C@@H](O)[C@H](N)C5)cc4)nc3c21 [Example I-13, ((3R,4R)-3-Amino-4-hydroxypiperidin-1-yl)(4-((1-isopropyl-1H-[1,2,3]triazolo[4,5-H]quinazolin-8-yl)amino)phenyl)metha none] | 0.8 | 4 | 29 | 4 | 330 | 252 | 156 |  |  |  | 
CC(C)n1nnc2ccc3cnc(Nc4ccc(C(=O)N5CC[C@H](N)[C@H](O)C5)cc4)nc3c21 [Example I-14, ((3R,4S)-4-Amino-3-hydroxypiperidin-1-yl)(4-((1-isopropyl-1H-[1,2,3]triazolo[4,5-H]quinazolin-8-yl)amino)phenyl)metha none] | 2 | 2 | 39 | 11 | 424 | 66 | 102 |  |  |  | 
CC(C)n1nnc2ccc3cnc(Nc4ccc(C(=O)N5CCN(C)[C@H](C)C5)cc4)nc3c21 [Example I-27, (R)-(3,4-Dimethylpiperazin-1-yl)(4-((1-isopropyl-1H-[1,2,3]triazolo[4,5-H]quinazolin-8-yl)amino)phenyl)metha none] | 2 | 5 | 14 | 6 | 186 | 32 | 69 |  |  |  | 
CC(C)n1nnc2ccc3cnc(Nc4ccc(C(=O)N5CCN(C)[C@@H](C)C5)cc4)nc3c21 [Example I-28, (S)-(3,4-Dimethylpiperazin-1-yl)(4-((1-isopropyl-1H-[1,2,3]triazolo[4,5-H]quinazolin-8-yl)amino)phenyl)metha none] | 2 | 2 | 18 | 9 | 174 | 42 | 59 |  |  |  | 
CN1CCCN(C(=O)c2ccc(Nc3ncc4ccc5nnn(C6CCCC6)c5c4n3)cc2)CC1 [Example I-42, (4-((1-Cyclopentyl-1H-[1,2,3]triazolo[4,5-H]quinazolin-8-yl)amino)phenyl)(4-methyl-1,4-diazepan-1-yl)methanone] | 0.06 | 1 | 4 |  | 7 | 3 | 6 | 2 |  |  | 
CN[C@H]1CCN(C(=O)c2ccc(Nc3ncc4cc(C(F)F)c5nnn(C(C)C)c5c4n3)cc2)C1 [Example I-44, (S)-(4-((4-(difluoromethyl)-1-isopropyl-1H-[1,2,3]triazolo[4,5-H]quinazolin-8-yl)amino)phenyl)(3-(methylamino)pyrrolidin-1-yl)methanone] | 0.7 | 2 | 16 |  | 404 | 127 | 321 | 140 |  |  | 
CC(C)n1nnc2c(C(F)F)cc3cnc(Nc4ccc(C(=O)N5CC[C@H](N(C)C)C5)cc4)nc3c21 [Example I-45, (S)-(4-((4-(Difluoromethyl)-1-isopropyl-1H-[1,2,3]triazolo[4,5-H]quinazolin-8-yl)amino)phenyl)(3-(dimethylamino)pyrrolidin-1-yl)methanone] | 0.8 | 3 | 36 |  | 476 | 241 | 359 | 144 |  |  | 
CC(C)n1nnc2c(C(F)F)cc3cnc(Nc4ccc(C(=O)N5CCCNCC5)cc4)nc3c21 [Example I-46] | 0.7 | 3 | 24 |  | 317 | 170 | 275 | 134 |  |  | 
CC(C)n1nnc2c(C(F)F)cc3cnc(Nc4ccc(C(=O)N5CCCN(C)CC5)cc4)nc3c21 [Example I-47, (4-((4-(Difluoromethyl)-1-isopropyl-1H-[1,2,3]triazolo[4,5-H]quinazolin-8-yl)amino)phenyl)(4-methyl-1,4-diazepan-1-yl)methanone] | 0.7 | 2 | 20 |  | 169 | 111 | 146 | 148 |  |  | 
C[C@H](CO)n1nnc2ccc3cnc(Nc4ccc(C(=O)N5CCNCC5)cc4)nc3c21 [Example I-50, (R)-(4-((1-(1-Hydroxypropan-2-yl)-1H-[1,2,3]triazolo[4,5-H]quinazolin-8-yl)amino)phenyl)(piperazin-1-yl)methanone] | 2 | 4 | 85 |  | 1740 | 548 | 1310 | 100 |  |  | 
(S)-(3-Aminopyrrolidin-1-yl)(4-(4-(difluoromethyl)-1-isopropyl-1H-[1,2,3]triazolo[4,5-H]quinazolin-8-yl)amino)phenyl)methanone [Example I-43] | 1 | 2 | 8 |  |  |  |  | 130 | 631 | 444 | 676
